# According to patent publication US8765773B2, “Substituted hydroxamic acids and uses thereof” (Millennium Pharmaceuticals, Inc., priority 2010, dated 2014):
# Target: T1, purified human HDAC6 (Homo sapiens, UniProt Q9UBN7)
# T1 construct: purchased BPS Bioscience 5006
# T1 sequence (Q9UBN7 1-1215): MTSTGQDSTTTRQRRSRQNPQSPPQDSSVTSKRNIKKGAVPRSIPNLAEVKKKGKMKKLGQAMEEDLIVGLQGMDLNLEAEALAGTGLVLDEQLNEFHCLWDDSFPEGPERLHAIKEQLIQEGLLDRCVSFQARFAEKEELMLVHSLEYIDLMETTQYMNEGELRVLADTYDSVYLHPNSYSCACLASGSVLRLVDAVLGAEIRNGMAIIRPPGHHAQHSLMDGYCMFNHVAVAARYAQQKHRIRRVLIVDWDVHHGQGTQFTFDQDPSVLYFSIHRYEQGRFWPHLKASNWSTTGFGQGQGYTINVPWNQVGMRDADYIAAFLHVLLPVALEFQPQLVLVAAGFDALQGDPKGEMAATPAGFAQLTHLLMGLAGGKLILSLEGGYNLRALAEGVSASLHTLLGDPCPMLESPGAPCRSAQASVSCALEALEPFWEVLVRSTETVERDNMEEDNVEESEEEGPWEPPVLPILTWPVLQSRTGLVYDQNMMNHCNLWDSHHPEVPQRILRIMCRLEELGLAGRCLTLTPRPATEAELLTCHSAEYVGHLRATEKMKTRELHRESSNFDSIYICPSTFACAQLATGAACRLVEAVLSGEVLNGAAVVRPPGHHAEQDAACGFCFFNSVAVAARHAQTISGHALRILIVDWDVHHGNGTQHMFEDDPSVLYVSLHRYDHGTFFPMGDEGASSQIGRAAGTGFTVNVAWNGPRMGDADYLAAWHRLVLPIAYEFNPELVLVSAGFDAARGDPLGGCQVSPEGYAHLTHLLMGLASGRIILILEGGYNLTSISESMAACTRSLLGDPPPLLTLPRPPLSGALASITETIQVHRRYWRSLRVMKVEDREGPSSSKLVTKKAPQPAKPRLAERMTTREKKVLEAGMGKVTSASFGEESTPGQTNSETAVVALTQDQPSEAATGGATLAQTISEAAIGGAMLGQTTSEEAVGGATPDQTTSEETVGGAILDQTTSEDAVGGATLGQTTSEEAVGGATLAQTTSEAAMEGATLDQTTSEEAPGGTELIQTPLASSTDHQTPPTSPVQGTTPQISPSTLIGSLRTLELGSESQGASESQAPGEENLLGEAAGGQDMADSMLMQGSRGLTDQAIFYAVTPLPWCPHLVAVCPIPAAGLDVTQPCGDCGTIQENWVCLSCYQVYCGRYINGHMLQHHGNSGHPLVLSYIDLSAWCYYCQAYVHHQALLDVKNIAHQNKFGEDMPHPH
# Assay: HDAC6 Enzyme Assay
# Assay type: biochemical
# Settings: compound concentration 0.37 μM, read-out: Percent Inhibition
# Method in brief: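 Purified human HDAC6 incubated 1 h at 30° C with Ac-Arg-Gly-Lys(Ac)-AMC peptide plus compound or DMSO; stopped with trichostatin A. Deacetylated product trypsin-digested, released AMC read by fluorescence (Ex 340/Em 460 nm). Percent inhibition at one concentration or IC50 from curves relative to DMSO controls.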
row,SMILES,inhibition at 0.37 µM [%]
1,"O=C(NO)c1ccc2ncn(Cc3cccc(-c4ccc(F)cc4)c3)c(=O)c2c1 [Compound I-181, 3-[(4′-fluorobiphenyl-3-yl)methyl]-N-hydroxy-4-oxo-3,4-dihydroquinazoline-6-carboxamide]",92.7
2,"CC(C)c1cccc(-c2cccc(Cn3cnc4ccc(C(=O)NO)cc4c3=O)c2)c1 [Compound I-182, N-hydroxy-3-[(3′-isopropylbiphenyl-3-yl)methyl]-4-oxo-3,4-dihydroquinazoline-6-carboxamide]",78.9
3,"CS(=O)(=O)Nc1cccc(Cn2cnc3ccc(C(=O)NO)cc3c2=O)c1 [Compound I-200, N-hydroxy-3-{3-[(methylsulfonyl)amino]benzyl}-4-oxo-3,4-dihydroquinazoline-6-carboxamide]",93.3
4,"CC(C)(C)OC(=O)N1CCC(C(CCn2ccc3ccc(C(=O)NO)cc3c2=O)c2ccc(Cl)cc2)CC1 (centres unmarked) [Compound I-205, tert-butyl 4-{1-(4-chlorophenyl)-3-[7-[(hydroxyamino)carbonyl]-1-oxoisoquinolin-2(1H)-yl]propyl}piperidine-1-carboxylate]",89.5

# Same assay, conditions: compound concentration 0.412 μM, read-out: Percent Inhibition
row,SMILES,inhibition at 0.412 µM [%]
1,"Cc1nc(-c2ccccc2OCCCn2ccc3ccc(C(=O)NO)cc3c2=O)cs1 [Compound I-183, N-hydroxy-2-{3-[2-(2-methyl-1,3-thiazol-4-yl)phenoxy]propyl}-1-oxo-1,2-dihydroisoquinoline-7-carboxamide]",67.4
2,"CC(C)(C)OC(=O)N1CCC(Cn2ccc3ccc(C(=O)NO)cc3c2=O)CC1 [Compound I-184, tert-butyl 4-{[7-[(hydroxyamino)carbonyl]-1-oxoisoquinolin-2(1H)-yl]methyl}piperidine-1-carboxylate]",88.9
3,"O=C(NO)c1ccc2ncn(Cc3cccc(C(F)(F)F)c3)c(=O)c2c1 [Compound I-185, N-hydroxy-4-oxo-3-[3-(trifluoromethyl)benzyl]-3,4-dihydroquinazoline-6-carboxamide]",95.5
4,"CS(=O)(=O)c1ccc(Cn2ccc3ccc(C(=O)NO)cc3c2=O)cc1 [Compound I-186, N-hydroxy-2-[4-(methylsulfonyl)benzyl]-1-oxo-1,2-dihydroisoquinoline-7-carboxamide]",95.5
5,"O=C(NO)c1ccc2ccn(Cc3c(F)cccc3Cl)c(=O)c2c1 [Compound I-187, 2-(2-chloro-6-fluorobenzyl)-N-hydroxy-1-oxo-1,2-dihydroisoquinoline-7-carboxamide]",95.1
6,"COc1ccc(N(CCCn2ccc3ccc(C(=O)NO)cc3c2=O)C(=O)OC(C)(C)C)cc1 [Compound I-188, tert-butyl {3-[7-[(hydroxyamino)carbonyl]-1-oxoisoquinolin-2(1H)-yl]propyl}(4-methoxyphenyl)carbamate]",94.4
7,"O=C(NO)c1ccc2ccn(CCOc3ccc(-c4csnn4)cc3)c(=O)c2c1 [Compound I-189, N-hydroxy-1-oxo-2-{2-[4-(1,2,3-thiadiazol-4-yl)phenoxy]ethyl}-1,2-dihydroisoquinoline-7-carboxamide]",97.2
8,"O=C(NO)c1ccc2ccn(Cc3ccc(OC(F)(F)F)cc3)c(=O)c2c1 [Compound I-190, N-hydroxy-1-oxo-2-[4-(trifluoromethoxy)benzyl]-1,2-dihydroisoquinoline-7-carboxamide]",92.9
9,"O=C(NO)c1ccc2ccn(CCCOc3ccc4c(c3)OCO4)c(=O)c2c1 [Compound I-191, 2-[3-(1,3-benzodioxol-5-yloxy)propyl]-N-hydroxy-1-oxo-1,2-dihydroisoquinoline-7-carboxamide]",95.5
10,"CN(C)c1nc2cc(C(=O)NO)ccc2c(=O)n1-c1ccccc1 [Compound I-192, 2-(dimethylamino)-N-hydroxy-4-oxo-3-phenyl-3,4-dihydroquinazoline-7-carboxamide]",61.5
11,"O=C(NO)c1ccc2ncn(Cc3ccccn3)c(=O)c2c1 [Compound I-193, N-hydroxy-4-oxo-3-(pyridin-2-ylmethyl)-3,4-dihydroquinazoline-6-carboxamide]",79.1
12,"O=C(NO)c1ccc2c(=O)n(Cc3ccccc3)c(=O)[nH]c2c1 [Compound I-194, 3-benzyl-N-hydroxy-2,4-dioxo-1,2,3,4-tetrahydroquinazoline-7-carboxamide]",36.1
13,"O=C(NO)c1ccc2c(=O)n(-c3ccccc3)c(=O)[nH]c2c1 [Compound I-195, N-hydroxy-2,4-dioxo-3-phenyl-1,2,3,4-tetrahydroquinazoline-7-carboxamide]",16.1
14,"O=C(NO)c1ccc2ccn(CCOc3cccc4c3CCC4)c(=O)c2c1 [Compound I-196, 2-[2-(2,3-dihydro-1H-inden-4-yloxy)ethyl]-N-hydroxy-1-oxo-1,2-dihydroisoquinoline-7-carboxamide]",95.2
15,"Cc1ccc(OCCCn2ccc3ccc(C(=O)NO)cc3c2=O)cc1 [Compound I-197, N-hydroxy-2-[3-(4-methylphenoxy)propyl]-1-oxo-1,2-dihydroisoquinoline-7-carboxamide]",96.5
16,"O=C(NO)c1ccc2ccn(Cc3cc(F)ccc3F)c(=O)c2c1 [Compound I-198, 2-(2,5-difluorobenzyl)-N-hydroxy-1-oxo-1,2-dihydroisoquinoline-7-carboxamide]",96.4
17,"Nc1nc2cc(C(=O)NO)ccc2c(=O)[nH]1 [Compound I-199, 2-amino-N-hydroxy-4-oxo-3,4-dihydroquinazoline-7-carboxamide]",42.4
18,"O=C(NO)c1ccc2ccn(C3c4ccccc4-c4ccccc43)c(=O)c2c1 [Compound I-201, 2-(9H-fluoren-9-yl)-N-hydroxy-1-oxo-1,2-dihydroisoquinoline-7-carboxamide]",88.8
19,"COc1cc(Cn2ccc3ccc(C(=O)NO)cc3c2=O)cc(OC)c1 [Compound I-202, 2-(3,5-dimethoxybenzyl)-N-hydroxy-1-oxo-1,2-dihydroisoquinoline-7-carboxamide]",96.1
20,"CCN(CC)c1nc2ccc(C(=O)NO)cc2c(=O)n1C [Compound I-203, 2-(diethylamino)-N-hydroxy-3-methyl-4-oxo-3,4-dihydroquinazoline-6-carboxamide]",46.4
21,"O=C(NO)c1ccc2ccn(CCOc3ccccc3Cl)c(=O)c2c1 [Compound I-204, 2-[2-(2-chlorophenoxy)ethyl]-N-hydroxy-1-oxo-1,2-dihydroisoquinoline-7-carboxamide]",98.7
22,"O=C(NO)c1ccc2ccn(Cc3cccc(Cl)c3)c(=O)c2c1 [Compound I-206, 2-(3-chlorobenzyl)-N-hydroxy-1-oxo-1,2-dihydroisoquinoline-7-carboxamide]",95.8
23,"NCCn1ccc2ccc(C(=O)NO)cc2c1=O [Compound I-207, 2-(2-aminoethyl)-N-hydroxy-1-oxo-1,2-dihydroisoquinoline-7-carboxamide]",59.5
24,"CCN(CC)Cc1cccc(Cn2ccc3ccc(C(=O)NO)cc3c2=O)c1 [Compound I-208, 2-{3-[(diethylamino)methyl]benzyl}-N-hydroxy-1-oxo-1,2-dihydroisoquinoline-7-carboxamide]",89.9
25,"O=C(NO)c1ccc2c(=O)n(Cc3ccc(F)cc3)cnc2c1 [Compound I-209, 3-(4-fluorobenzyl)-N-hydroxy-4-oxo-3,4-dihydroquinazoline-7-carboxamide]",95.9
26,"O=C(NO)c1ccc2c(=O)[nH]c(COc3ccc(-n4ccnc4)cc3)nc2c1 [Compound I-210, N-hydroxy-2-{[4-(1H-imidazol-1-yl)phenoxy]methyl}-4-oxo-3,4-dihydroquinazoline-7-carboxamide]",80.7
27,"O=C(NO)c1ccc2ccn(Cc3csc4ccc(Cl)cc34)c(=O)c2c1 [Compound I-211, 2-[(5-chloro-1-benzothien-3-yl)methyl]-N-hydroxy-1-oxo-1,2-dihydroisoquinoline-7-carboxamide]",92.3
28,"Cc1ccc(OCCn2ccc3ccc(C(=O)NO)cc3c2=O)cc1 [Compound I-212, N-hydroxy-2-[2-(4-methylphenoxy)ethyl]-1-oxo-1,2-dihydroisoquinoline-7-carboxamide]",96.9
